Measurements as given in the supplement of paper PMC10307832.

What was measured:
Assay in all cases: relative viability (nuclei count vs DMSO), 5 days (fraction); higher = more cells survive
R406 + OSI-027 = compound: COc1cc(Nc2ncc(F)c(Nc3ccc4c(n3)NC(=O)C(C)(C)O4)n2)cc(OC)c1OC [R406] + COc1cccc2cc(-c3nc([C@H]4CC[C@H](C(=O)O)CC4)n4ncnc(N)c34)[nH]c12 [OSI-027] (partner 0.5 µM)
How it was run: (§1)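 After 5 days of treatment, lung cancer cells in 1536-well plates were fixed and stained in a single step (final 0.05% Triton X-100, 1% formaldehyde, 1 ug/ml Hoechst) and their nuclei counted on 4× images. Treatment had been applied by pin tool the day after seeding as one drug alone or as a fixed anchor-drug dose with five library-drug doses (not always all listed) in √10 steps. Relative viability is the nuclei count of treated wells divided by that of vehicle wells, and values are medians of duplicate plates.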

R406 + Vorinostat = compound: COc1cc(Nc2ncc(F)c(Nc3ccc4c(n3)NC(=O)C(C)(C)O4)n2)cc(OC)c1OC [R406] + O=C(CCCCCCC(=O)Nc1ccccc1)NO [Vorinostat] (partner 1 µM)
How it was run: as §1

Daporinad + Navitoclax = compound: O=C(/C=C/c1cccnc1)NCCCCC1CCN(C(=O)c2ccccc2)CC1 [Daporinad] + CC1(C)CCC(c2ccc(Cl)cc2)=C(CN2CCN(c3ccc(C(=O)NS(=O)(=O)c4ccc(N[C@H](CCN5CCOCC5)CSc5ccccc5)c(S(=O)(=O)C(F)(F)F)c4)cc3)CC2)C1 [Navitoclax] (partner 0.5 µM)
How it was run: as §1

Daporinad + Linsitinib = compound: O=C(/C=C/c1cccnc1)NCCCCC1CCN(C(=O)c2ccccc2)CC1 [Daporinad] + C[C@]1(O)C[C@@H](c2nc(-c3ccc4ccc(-c5ccccc5)nc4c3)c3c(N)nccn32)C1 [Linsitinib] (partner 1 µM)
How it was run: as §1

Row | Cell Line | relative viability (R406 + OSI-027; first compound 0.08 µM) | relative viability (R406 + OSI-027; first compound 0.253 µM) | relative viability (R406 + OSI-027; first compound 0.8 µM) | relative viability (R406 + OSI-027; first compound 2.53 µM) | relative viability (R406 + OSI-027; first compound 8 µM) | relative viability (R406 + Vorinostat; first compound 0.08 µM) | relative viability (R406 + Vorinostat; first compound 0.253 µM) | relative viability (R406 + Vorinostat; first compound 0.8 µM) | relative viability (R406 + Vorinostat; first compound 2.53 µM) | relative viability (R406 + Vorinostat; first compound 8 µM) | relative viability (Daporinad + Navitoclax; first compound 0.0005 µM) | relative viability (Daporinad + Navitoclax; first compound 0.001581 µM) | relative viability (Daporinad + Navitoclax; first compound 0.005 µM) | relative viability (Daporinad + Navitoclax; first compound 0.01581 µM) | relative viability (Daporinad + Linsitinib; first compound 0.0005 µM) | relative viability (Daporinad + Linsitinib; first compound 0.001581 µM) | relative viability (Daporinad + Linsitinib; first compound 0.005 µM) | relative viability (Daporinad + Linsitinib; first compound 0.01581 µM)
1 | NCI-H838 | 0.407 | 0.472 | 0.368 | 0.326 | 0.167 | 0.694 | 0.795 | 0.769 | 0.458 | 0.194 | 1.15 | 1.23 | 0.928 | 0.624 | 1.17 | 1.14 | 0.832 | 0.558
2 | NCI-H1355 | 0.474 | 0.404 | 0.456 | 0.163 | 0.189 | 0.72 | 0.71 | 0.733 | 0.385 | 0.439 | 0.911 | 0.98 | 1.05 | 0.951 | 0.798 | 1.02 | 0.9 | 0.876
3 | NCI-H1395 | 0.592 | 0.73 | 0.754 | 0.429 | 0.424 | 0.633 | 0.731 | 0.843 | 0.399 | 0.417 | 1.03 | 1.14 | 1.13 | 1.26 | 1.01 | 1.23 | 0.999 | 1.44
4 | NCI-H1437 | 0.91 | 0.86 | 1.11 | 0.835 | 0.593 | 0.901 | 0.983 | 0.84 | 0.835 | 0.602 | 1.09 | 1.1 | 1.04 | 1.07 | 0.969 | 0.986 | 0.976 | 0.965
5 | NCI-H1651 | 0.632 | 0.749 | 0.804 | 0.621 | 0.286 | 0.557 | 0.612 | 0.615 | 0.547 | 0.545 | 1.14 | 1.16 | 0.813 | 0.758 | 0.928 | 0.935 | 0.839 | 0.838
6 | NCI-H1666 | 0.829 | 0.851 | 0.88 | 0.829 | 0.642 | 1.02 | 1.09 | 1.05 | 1.1 | 1.03 | 0.957 | 1.05 | 0.861 | 0.796 | 0.834 | 0.764 | 0.747 | 0.839
7 | NCI-H1734 | 0.604 | 0.684 | 0.647 | 0.381 | 0.374 | 0.747 | 0.918 | 0.909 | 0.366 | 0.309 | 0.845 | 0.96 | 0.903 | 0.601 | 0.841 | 0.962 | 0.894 | 0.732
8 | NCI-H1755 | 0.667 | 0.78 | 0.692 | 0.331 | 0.376 | 0.778 | 0.861 | 0.757 | 0.642 | 0.468 | 0.987 | 0.974 | 1.04 | 0.989 | 1.02 | 0.998 | 0.977 | 0.988
